Data set [1] deals with skin. Put plainly: Demonstrations of anesthetizing plastic, tapes and adhesive films on skin. Type of data set: in vivo, human. The conditions noted are these: employed instead of lidocaine. The source says: […]. For instance, lidocaine added to polyvinyl chloride is all that is needed to create a soft, stretchy, elastic vinyl milled film or sheet. Like the common vinyl plasticizer di-isooctyl phthalate, lidocaine base slowly migrates to the surface of the formed object, to serve as a sustained source of anesthetic to tissue contacted by the device. The rate of drug delivery is governed by the selected concentration of the drug, the selected plastic resin and the acceptance rate of the part of the body with which the anesthetizing plastic is in contact. […]. A piece of such milled vinyl anesthetic material has remained taped to skin for 10 days without any diminution of anesthetizing effect or apparent loss of plasticization.
. […]. However, when this adhesive-topical anesthetic mixture is applied to polyethylene film as a carrier and is pressed with a warm hand to human skin, sufficient tackiness is observed that the film clings to the applied areas effectively, but can be readily removed. The tacky product is suitably dispensed with the tacky layer protected by contact with silicone coated release paper.
With such devices, in 1-3 hours topical anesthesia of the skin is established, which will last for 2-3 days if the film patch is left in place. Washing the skin e.g. with lauramide surfactant prior to applying the film decreases the onset time for skin anesthesia. […]

The procedure of data set [2]:
In one case, in the course of manufacture, propafenone is dissolved in orally administratable solid granules such as coarse or fine powder of non-biodegradable thermoplastic resin. […] In another embodiment, the resin is formed on or as an implant to release the drug directly to heart tissue or the blood stream, or as a transdermal patch or as a drug-applying ear or nose plug.

In the case of `CCCCOc1cc(C(=O)NCCN(CC)CC)c2ccccc2n1` [dibucaine], the “duration of anesthesia following removal compared with lidocaine” value in data set [1] was “substantially longer”.
`CCN(CC)CC(=O)Nc1c(C)cccc1C` [lidocaine base]: in data set [2] (PVC), the “amount held by PVC” value was “about 50%” and the “amount in solution in PVC that can be employed” value was at least 50 % by weight. Moreover, the “amount held by CPE” value in data set [2] (chlorinated polyethylene, by milling) is reported as “about 25%”. In addition, in data set [2] (ethylene propylene, by milling), the “amount held by EP” value was “about 25%”.
Regarding `CCCCNc1ccc(C(=O)OCCN(C)C)cc1` [tetracaine], the “duration of anesthesia following removal compared with lidocaine” value in data set [1] is “substantially longer”.

The record behind these values is patent US6461644B1, “Anesthetizing plastics, drug delivery plastics, and related medical products, systems and methods” (priority 1996, dated 2002).
